Measured values reported in patent US20180135010A1, “ISOLATION AND LONG-TERM CULTURING OF ESTROGEN RECEPTOR-POSITIVE HUMAN BREAST EPITHELIAL CELLS” (University of Copenhagen, priority 2015, published 2018).

Key:
CD166^high-derived cells = assay: Long-term growth / population doublings on passaging; assay type: cell-based, human; conditions: in the absence of RepSox (SB431542 alone)
Description: For growth experiments cultures initially seeded at 6400 cells/cm^2 and grown for fifteen days in primary culture in TGFβR2i or with SB431542 alone. Next, the cultures were trypsinized and seeded at 4000 cells/cm^2 in triplicate cultures, and subsequently passaged at the same density before the cultures reached confluency. Parallel cultures were stained to assess Ks20.8, ER and PR expression status. The number of cells was quantified manually using a counting chamber. […] Population doublings were calculated as n=3.32(log UCY—log 1)+X, where n=population doubling, UCY=cell yield, 1=inoculum number, X=population doubling rate of inoculum. To determine whether continuous TGFβR2i culture was needed to sustain ER and K8 expression, cells in the sixth passage were switched to FAD2 and the number of ER^pos cells (n=3×100) was compared to parallel TGFβR2i cultures at day three and five.

[1] = tested on: hTERT/shp16 transduced ER^pos HBEC; assay: qRT-PCR of ESR and PGR after 7 days exposure to inhibitors; assay type: cell-based, human; conditions: RepSox alone versus combination with SB431542
Procedure: FIG. 12: PCR analysis of human estrogen receptor signaling. (a) Using a commercially available PCR array containing 84 genes involved in ER activation and its response, qRT-PCR was conducted with RNA samples of ER^pos HBEC with or without TGFβ[…]. Among them, 20 genes (some of which are labeled in the plot) were highly expressed in the presence of TGFβ[…]. […] The black line indicates no difference between samples, while the pink lines indicate a two-fold change in gene expression. Two biological replicates were run I qRT-PCT with duplicates of each. […] Bars indicate the fold difference of the relative gene expression and error bars represent SD of triplicates in qPCR.

CD166^high cells = assay: Induction of ER, K8 and luminal genes by TGF-β signaling inhibitors (qPCR, Western blotting, staining); assay type: cell-based, human
Procedure: To test the specificity of the effect of TGFβ[…], in some experiments SB431542 alone or the double concentration of SB431542 was used instead of TGFβ[…] or RepSox was replaced by another TGF-β type I receptor activin receptor-like kinase ALKS inhibitor, SD208 (1 μM, Tocris Bioscience). The vehicle, dimethyl sulfoxide (Sigma Aldrich), was included in all experiments added in appropriate concentrations for control cultures. Gentamycin (50 μg/ml, Biological Industries) was added to the cultures for one week after sorting, otherwise antibiotics were not included. […] In order to quantify cDNA concentration represented by cycle threshold (Ct) values, Cts were determined at the initial period of exponential amplification in triplicates and the different PCR runs were adjusted by inter-run calibrators (Bio-Rad CFX manager 3.0). Each gene expression level was to the mean of four reference gene expressions (GAPDH, HPRT1, TBP, and TFRC). The qRT-PCR data were then visualized as a heatmap using the statistical programi R or as a bar graph using the values calculated by the 2^-ΔΔCt method (Livak et al., 2001). […] Whole cell lysates were prepared for extraction by incubation in RIPA lysis buffer for 30 min at 4° C. with protease inhibitor cocktail (P8340, Sigma) and phosphatase inhibitor cocktail (Sigma, P5726). Protein were separated by a 4 12% Novex® Bis-Tris pre-cast polyacrylamide gradient gel (Life technologies) and transferred to a PVDF membrane using iBlot® dry blotting system (Life technologies). Molecular weight was indicated by using a pre-stained protein ladder (SM0671, Fermentas). […] Secondary antibodies conjugated with horseradish peroxidase (DAKO) were incubated for one hour at room temperature. Western blots were visualized using enhanced chemiluminescence solution ([…] 32106, Thermo Scientific) and a chemi-luminescence imager (Amersham Image 600, GE Healthcare life sciences).

ER^pos cells [2] = assay: PR protein staining after estrogen; assay type: cell-based, human; conditions: 10^−8 M β-estradiol, absence of EGF
Procedure: Cryostat sections, smears of sorted cells and monolayer cultures were prepared and stained by immunoperoxidase or immunofluorescence as previously described (Petersen et al. 1988, Villadsen et al. 2007, Rønnov-Jessen et al. 1992). Cellular smears for ER staining were fixed in 10% formalin for 10 min, followed by 5 min in ice-cold methanol:acetone (1:1), and incubated over night with anti-ER (Sp1, 1:10) at 4° C., followed by incubation for 30 min with Alexa Fluor 568 goat-anti rabbit IgG (Invitrogen). […] Immunofluorescence and peroxidase stainings were evaluated, quantified and photographed using a laser-scanning microscope (LSM 510; Carl Zeiss Microlmaging, Inc.) and brightfield microscopes (Laborlux S or DM5500B, Leica), respectively. For quantification of ER, K8, K19 and p63, nuclei were counterstained with hematoxylin and counted in randomly selected fields using an ocular grid and given as the percentage of stained cells of a total of 1000 cells evaluated with a 25 times objective.
As an ultimate test for a physiologically relevant ER expression we decided to assess the effect of added cognate ligand, i. e. estrogen (β-estradiol). […] Early passage cultures were exposed to estrogen or vehicle, and after four days the cell number was quantified. […]

ER^pos cells [3] = assay: qRT-PCR of PGR and GREB1 after estrogen; assay type: cell-based, human; conditions: long-term exposure to estrogen
ER^pos cells [4] = assay: Response to estrogen on confluent fibroblast feeders; assay type: cell-based, human; conditions: on confluent fibroblast feeders in TGFβR2i, day eight
Procedure: To assess whether the response of ER^pos cells to estrogen was modulated by the presence of fibroblasts, second or third passage ER^pos cells, with or without omission of EGF in the previous passage, were plated at a density of 5600 cells/cm^2 on confluent fibroblast feeders in triplicate culture. The following day, the culture medium was switched to TGFβR2i with estrogen or vehicle. […] At day eight, the cultures were trypsinized and the total cell number was quantified. Whether a continuous lack of EGF influenced the response to estrogen was tested in a similar set-up, where EGF was omitted from the medium during the entire experimental period.

ER^pos cells [5] = assay: Proliferative response to estrogen without EGF; assay type: cell-based, human; conditions: early passage cultures, 10^−8 M β-estradiol versus vehicle, four days
Procedure: To test the proliferative response to estrogen, ER^pos cells in TGFβR2i culture were seeded in second passage with 4000 cells/cm^2 in TGFβR2i with 25 μM RepSox and without EGF, supplemented with estrogen (10^−8 M, β-estradiol, E2758, Sigma-Aldrich) and cultured for up to 13 days with medium change every other day. A primary culture from another biopsy (P959) was cultured 27 days in the presence of estrogen and without EGF before splitting. The cells were passaged at 4000 cells/cm^2 in triplicate cultures with estrogen or vehicle (96% ethanol). At day four the cultures were trypsinized and quantified using a counting chamber.

luminal cells = assay: Screening assay for normal morphogenic behavior (co-culture on fibroblast feeder in BBMYAB); assay type: cell-based, human; conditions: E2 10^−8 M
Description: Within two weeks luminal cells grow up from single cells to form polarized structures, either comprising luminal cells only or luminal cells surrounded by a layer of myoepithelial cells, reminiscent of their organization in vivo.

ER and PR = assay: Substitution of EGF with amphiregulin in the culture medium; assay type: cell-based; conditions: EGF substituted with amphiregulin

Molecule: Cc1cccc(-c2[nH]ncc2-c2ccc3ncccc3n2)n1 [RepSox]
- expansion on passaging (CD166^high-derived cells): could not be expanded beyond fourth passage
- induction of ER or PR [1]: not as effective in inducing ER or PR as in combination with SB431542

Molecule: NC(=O)c1ccc(-c2nc(-c3ccc4c(c3)OCO4)c(-c3ccccn3)[nH]2)cc1 [SB431542]
- ER expression at the mRNA level (CD166^high cells; SB431542 alone in FAD2): capable of inducing increased expression of ER at the mRNA level
- induction of K8 and ER (CD166^high cells; twice the concentration of SB431542 instead of TGFβR2i): insufficient to induce K8 and ER

Molecule: Fc1ccc(Cl)cc1-c1nc(Nc2ccncc2)c2nccnc2n1 [SD208]
- induction of K8 and ER (CD166^high cells; RepSox replaced by SD208): insufficient to induce K8 and ER

Molecule: β-estradiol [estrogen]
- PR protein expression (ER^pos cells [2]): higher focal expression of PR protein
- expression of PGR and GREB1 (ER^pos cells [3]): increased expression of PGR and GREB1
- cell number (ER^pos cells [4]): significant increase in cell number
- cell number (ER^pos cells [5]): significantly higher cell numbers
- epithelial colony size (luminal cells): larger epithelial colonied are formed
- estrogen receptor and progesterone receptor expression (luminal cells): down-regulation of its receptor and induction of the downstream progesterone receptor

B1: amphiregulin: EGF-like compound substituted for EGF in the culture medium (protein, UniProt P15514 101-187, looked up)
Amphiregulin: SVRVEQVVKPPQNKTESENTSDKPKRKKKGGKNGKNRRNRKKKNPCNAEFQNFCIHGECKYIEHLEAVTCKCQQEYFGERCGEKSMK
modifications: Amphiregulin
notes: EGF-like compound substituted for EGF in the culture medium
- level of ER and PR (ER and PR): a higher level of ER and PR is observed
